Key:
Rattus norvegicus [1] = species: Rattus norvegicus; assay: Agonist activity relative to TRH (Thyroliberin) was evaluated in rat; type: functional
Rattus norvegicus [2] = species: Rattus norvegicus; assay: Agonist activity relative to TRH (Thyroliberin) was evaluated in rat; none at a dose up to 30 ug; type: functional, organism-based
Rattus norvegicus [3] = species: Rattus norvegicus; assay: Agonist activity relative to TRH (Thyroliberin) was evaluated in rat; None at a dose up to 30 ug; type: functional, organism-based
Rattus norvegicus [4] = species: Rattus norvegicus; assay: Agonist activity relative to TRH (Thyroliberin) was evaluated in rat at a dose of 0.6 ng; type: functional

`O=C(CCl)c1cccc(C(=O)NC(Cc2ccccc2)C(=O)N2CCCC2)c1` (configuration not stated) gave a Relative activity (Rattus norvegicus [1]) of 0.0012%.

With `C[C@H](NC(=O)c1cccc(C(=O)CCl)c1)C(=O)N[C@@H](Cc1ccccc1)C(=O)N1CCCC1` the Relative activity (Rattus norvegicus [2]) was “None”.

For `O=C(CCl)NC(Cc1ccccc1)C(=O)N1CCCC1` (configuration not stated), the Relative activity (Rattus norvegicus [3]) was “None”.

Compound `C[C@H](NC(=O)c1ccc(C(=O)CCl)cc1)C(=O)N[C@@H](Cc1ccccc1)C(=O)N1CCCC1` has a Relative activity (Rattus norvegicus [1]) of 0.005%.

`O=C(CCl)c1ccc(C(=O)NC(Cc2ccccc2)C(=O)N2CCCC2)cc1` (configuration not stated) showed a Relative activity (Rattus norvegicus [1]) of 0.0006%.

`NC(=O)[C@@H]1CCCN1C(=O)[C@H](Cc1c[nH]cn1)NC(=O)[C@@H]1CCC(=O)N1` [PROTIRELIN] gave a Relative activity (Rattus norvegicus [4]) of 100%.

`C[C@H](NC(=O)CCl)C(=O)N[C@@H](Cc1ccccc1)C(=O)N1CCCC1` was tested, and the Relative activity (Rattus norvegicus [3]) was “None”.

Source: ChEMBL document CHEMBL1121807, “Potential thyroliberin affinity labels. 1. Chloroacetyl-substituted phenylalanylpyrrolidines” (1981)
